Assay results published in patent publication US20240252668A1, “ANTIBODY DRUG CONJUGATES AND METHODS FOR MAKING THEREOF” (Novartis AG, priority 2021, published 2024).
Where two headings read alike, the source gives them in different places. Starred links: 1 amine or outer side, 2 acyl side, 3 side chain; linkers in the order of their positions; H or OH if unused. Positions of bridges follow the written chain, without caps; N, C: chain ends. Non-standard residues stand in square brackets, D forms with d. Residues, ends and D or L forms follow the SMILES beside them. *: point of attachment. Leu(3R-OH,Nα-propionyl) = CCC(=O)N[C@H](C(=O)*)[C@H](O)C(C)C; X1 = CC(C)[C@@H](O[*:3])[C@H](N[*:1])C(=O)[*:2]; NMeT = CN[C@H](C(=O)O)[C@@H](C)O; dPhLac = O=C(O)[C@H](O)Cc1ccccc1; NMeA = CN[C@@H](C)C(=O)O; NMeDha = C=C(NC)C(=O)O; Propionyl = CCC(=O)*

Experiments:
Assay type in all cases: cell-based
[1] = system: MP41 uveal melanoma cell line (heterozygous GNA11 Q209L); assay: Cell proliferation assay (resazurin cell viability), MP41 cell line
From the text: (§1) Cell Proliferation Assays with Chromodepsins (compounds (A1) and 2-15): Cell line descriptions: 92.1—uveal melanoma cell line, derived from primary tumor, harboring heterozygous GNAQ Q209L mutation. Purchased from Sigma Aldrich. MP41 (CRL-3297) -uveal melanoma cell line, derived from primary tumor, harboring heterozygous GNA11 Q209L mutation. Purchased from ATCC. A375—skin melanoma cell line, harboring homozygous BRAF V600E mutation. Origin: Cancer Cell Line Encyclopedia (CCLE). SK-MEL-30—skin melanoma cell line, harboring heterozygous NRAS Q61K mutation. Origin: CCLE.
(§2) Cells were cultured in 96-well plates in a total volume of 100 μL at 37° C., 5% CO2 and 95% relative humidity. All cell lines were cultured in RPMI Medium (RPMI 1640 w/o L-glutamine, Bioconcept ref. 1-41F01-I) except A375, DMEM medium (DMEM high glucose (4.5 g/L), Bioconcept, ref. 1-26F01-I), and supplemented with 10% FCS (Bioconcept, ref. 2-01F30-I). Two to three thousand cells were seeded in 96-well plates per well the night before they were treated with compounds (concentration range: from 260 nM to 0.036 nM with ⅓ dilution steps; for 7 the concentration range was increased from 10000 nM to 1.52 nM with ⅓ dilution steps). Cell viability was measured by addition of 10 ul of resazurin per well after 96 hours of treatment. Results were analyzed and plotted using GraphPad Prism 9.0.1.

[2] = system: SK-MEL-30 skin melanoma cell line (heterozygous NRAS Q61K); assay: Cell proliferation assay (resazurin cell viability), SK-MEL-30 cell line
From the text: as §1, §2

[3] = system: 92.1 and MP41 cell lines (GNAQ/GNA11 mutant uveal melanoma); assay: Cell proliferation assays, potency ranking over both uveal melanoma lines; settings: 92.1 and MP41 cell lines
From the text: The selective antiproliferative profile of the chromodepsins against GNAQ/GNA11 mutant cell lines is confirmed by the lack of activity against the A375 and SK MEL 30 cell lines that are independent from GNAQ/GNA11 signaling. The potency ranking using the 92.1 and MP41 cell lines is in good agreement with the previously SAR studies. […] These findings are in line with a recent report from Voss et al., highlighting the importance of the “lipophilic anchors” of compound (A1) at the residues varied in compounds 2 and 3, in context of binding kinetics and prolonged residence time on the target proteins. The retained potency of compound 4 indicates a promising exit vector for potential synthetic or biosynthetic modifications of the scaffold. […] The linearized depsipeptides compounds 5-7 lack any antiproliferative activity. In this experimental setup, the cellular permeability of the compounds was a crucial factor contributing to the observed antiproliferative potency. Therefore, all compounds were characterized in a low efflux MCDK assay and determined their exposed polar surface areas (EPSA) in order to assess their passive cellular permeabilities. All macrocyclic chromodepsins that feature the N acyl Hle side chain show similar results concerning their % fraction absorbed (% FA; average ˜60% FA+20%) and EPSA values.
as §1, §2

[4] = system: A375 skin melanoma cell line (homozygous BRAF V600E); assay: Cell proliferation assay (resazurin cell viability), A375 cell line
From the text: as §1, §2

[5] = system: 92.1 uveal melanoma cell line (heterozygous GNAQ Q209L); assay: Cell proliferation assay (resazurin cell viability), 92.1 cell line
From the text: as §1, §2

C=C1C(=O)N[C@@H](C)C(=O)N(C)[C@@H](C)C(=O)N[C@@H]([C@H](OC(=O)[C@@H](NC(=O)CC)[C@H](O)C(C)C)C(C)C)C(=O)N(C)[C@@H]([C@@H](C)OC)C(=O)O[C@H](C(C)C)[C@H](NC(=O)CC)C(=O)O[C@H](Cc2ccccc2)C(=O)N1C [Compound 9] (Propionyl-[X1][dPhLac][NMeDha]A[NMeA][X1](Leu(3R-OH,Nα-propionyl))[NMeT](Me); ester 1-C)
GI50 ([1]; MP41 (GNA11 Q209L), 96 hours of treatment, read-out: GI50 by cell line, MP41): 0.7 nM
GI50 ([1]; MP41 cell line, average of Rep. 1 and 2, read-out: GI50 MP41 Average): 0.7 nM
GI50 ([1]; MP41 cell line, replicate 1, read-out: GI50 MP41 Rep. 1): 0.6 nM
GI50 ([1]; MP41 cell line, replicate 2, read-out: GI50 MP41 Rep. 2): 0.78 nM
GI50 ([2]; SK-MEL-30 (GNAQ/11 wild type), 96 hours of treatment, read-out: GI50 by cell line, SK-MEL-30): > 260 nM
GI50 ([2]; SK-MEL-30 cell line, average of Rep. 1 and 2, read-out: GI50 SK-MEL-30 Average): > 260 nM
GI50 ([2]; SK-MEL-30 cell line, replicate 1, read-out: GI50 SK-MEL-30 Rep. 1): > 260 nM
GI50 ([2]; SK-MEL-30 cell line, replicate 2, read-out: GI50 SK-MEL-30 Rep. 2): > 260 nM
loss of potency compared to compound (A1) (growth inhibition) [3]: two to three
GI50 ([4]; A375 (GNAQ/11 wild type), 96 hours of treatment, read-out: GI50 by cell line, A375): > 260 nM
GI50 ([4]; A375 cell line, average of Rep. 1 and 2, read-out: GI50 A375 Average): > 260 nM
GI50 ([4]; A375 cell line, replicate 1, read-out: GI50 A375 Rep. 1): > 260 nM
GI50 ([4]; A375 cell line, replicate 2, read-out: GI50 A375 Rep. 2): > 260 nM
GI50 ([5]; 92.1 (GNAQ Q209L), 96 hours of treatment, read-out: GI50 by cell line, 92.1): 1.4 nM
GI50 ([5]; 92.1 cell line, average of Rep. 1 and 2, read-out: GI50 92.1 Average): 1.4 nM
GI50 ([5]; 92.1 cell line, replicate 1, read-out: GI50 92.1 Rep. 1): 1.2 nM
GI50 ([5]; 92.1 cell line, replicate 2, read-out: GI50 92.1 Rep. 2): 1.69 nM
